# Data taken from patent US5892029A, “3-hydroxy-2(1H)-pyridinone chelating agents” (priority 1997, dated 1999).
# Where two headings read alike, the source gives them in different places.
# Key:
# [1] = 30 μmol/kg i.p. at 1 h; reported previously (footnote e); cited from earlier work
# [2] = type: in vivo, mice
# Experimental: The test of acute toxicity of these novel ligands was carried out as follows. […] The ligand was dissolved in 0.5 to 1.0 ml of saline at pH 7 to 8. After a period of observation, the mice were killed, selected tissues were removed and fixed for histopathological examination,and unusual findings at autopsy were recorded.
# [3] = Liquid/liquid extraction of Pu(IV) from aqueous solution (Tables 7 and 8)
# Experimental: Liquid/liquid extractions were performed with the radioactive plutonium isotope ^242 Pu at the Lawrence Livermore National Laboratory's Glenn T. Seaborg Institute for Transactinium Science, Livermore, Calif. The aqueous phase contained ^242 Pu, while the organic phases contained 3,2-HOPO ligands at 2-5 mM concentration. Kinetic studies were the primary method used to determine the efficacy of the specific ligand in organic solvent. Generally, five microcentrifuge tubes were prepared with the same organic and aqueous phases, and shaken with a vortex-style mixer for 1, 5, 10, and 20 minutes. After mixing, an aliquot of each phase was pipetted from the tube into a scintillation vial, mixed with a scintillation cocktail, and scintillation counted to determine the amount of the radioactive species present in each phase after extraction.
# [4] = protocol IA: 100 μmol/kg × 2 daily, 6 d, two moribund mice autopsied on d 3
# [5] = protocol IA: 100 μmol/kg × 2 daily, 3 d, mean ± SD
# [6] = protocol IA: 100 μmol/kg × 2 daily, 11 d, mean ± SD
# [7] = protocol I: 100 μmol/kg × 10 daily i.p., 11 d, mean ± SD
# [8] = protocol I: 100 μmol/kg × 10 daily i.p., 21 d, mean ± SD
# [9] = protocol II: 500 μmol/kg × 2 in 8 h i.p., 8 d, mean ± SD
# [10] = octanol, 0.10M aqueous, 1.0 min
# [11] = octanol, 0.10M aqueous, 5.0 min
# [12] = octanol, 0.10M aqueous, 10.0 min
# [13] = octanol, 0.10M aqueous, 20.0 min
# [14] = octanol, 5.0M aqueous, 10.0 min
# [15] = octanol, 5.0M aqueous, 20.0 min
compound,measurement,setting,value
"O=C(NCCCN(CCCCN(CCCNC(=O)c1cccc(=O)n1O)C(=O)c1cccc(=O)n1O)C(=O)c1cccc(=O)n1O)c1cccc(=O)n1O [3,4,3-LI(1,2-HOPO)]",238Pu excreta: feces and GI contents,[1],57% of injected ^238 Pu
same,238Pu excreta: urine 0-24 h,[1],23% of injected ^238 Pu
same,238Pu in kidneys at 24 h,[1],0.2% of injected ^238 Pu
same,238Pu in liver at 24 h,[1],8.9 ± 1.7% of injected ^238 Pu
same,238Pu in skeleton at 24 h,[1],7.5 ± 0.7% of injected ^238 Pu
same,238Pu in soft tissue at 24 h,[1],1.6 ± 0.6% of injected ^238 Pu
same,238Pu in whole body at 24 h,[1],18 ± 1.7% of injected ^238 Pu
"O=C(NCCCCN(CCCNC(=O)c1cccc(=O)n1O)C(=O)c1cccc(=O)n1O)c1cccc(=O)n1O [3,4-LI(1,2-HOPO)]",238Pu excreta: feces and GI contents,[1],58% of injected ^238 Pu
same,238Pu excreta: urine 0-24 h,[1],7.9% of injected ^238 Pu
same,238Pu in kidneys at 24 h,[1],0.6% of injected ^238 Pu
same,238Pu in liver at 24 h,[1],18 ± 4.8% of injected ^238 Pu
same,238Pu in skeleton at 24 h,[1],9.9 ± 3.6% of injected ^238 Pu
same,238Pu in soft tissue at 24 h,[1],5.8 ± 1.3% of injected ^238 Pu
same,238Pu in whole body at 24 h,[1],34 ± 9.2% of injected ^238 Pu
"Cn1ccc(C(=O)NCCCNC(=O)c2ccn(C)c(=O)c2O)c(O)c1=O [3-LI-Me-3,2-HOPO, 1,3-bis[(3-hydroxy-1-methyl-2-oxo-1,2-dihydropyridin-4-yl)carboxamido] propane]",toxicity / mortality (in words),"[2]; mouse, in vivo",all mice were dead by d 3
same,no. of survivors,"[2]; protocol IA: 100 μmol/kg × 2 daily, 6 d, of 10 mice",0
same,body weight,[2]; [4],89 ± 4 percent control
same,kidney weight,[2]; [4],222 ± 29 percent control
same,plasma urea N,[2]; [4],> 1800 percent control
"Cn1ccc(C(=O)NCCCCCCNC(=O)c2ccn(C)c(=O)c2O)c(O)c1=O [6-LI-Me-3,2-HOPO, 1,6-bis[(3-hydroxy-1-methyl-2-oxo-1,2-dihydropyridin-4-yl)carboxamido]hexane]",body weight,[2]; [5],83 ± 3 percent control
same,kidney weight,[2]; [5],132 ± 11 percent control
same,plasma urea N,[2]; [5],343 ± 140 percent control
same,no. of survivors,"[2]; protocol IA: 100 μmol/kg × 2 daily, 3 d, of 5 mice",5
same,body weight,[2]; [6],101 ± 5 percent control
same,kidney weight,[2]; [6],112 ± 13 percent control
same,plasma urea N,[2]; [6],92 ± 6 percent control
same,no. of survivors,"[2]; protocol IA: 100 μmol/kg × 2 daily, 11 d, of 5 mice",3
"CC(=O)N(O)CCCCCNC(=O)CCC(=O)N(O)CCCCCNC(=O)CCC(=O)N(O)CCCCCN [DFO, desferrioxamine B]",238Pu excreta: feces and GI contents,[1],15.1% of injected ^238 Pu
same,238Pu excreta: urine 0-24 h,[1],38% of injected ^238 Pu
same,238Pu in kidneys at 24 h,[1],1.8% of injected ^238 Pu
same,238Pu in liver at 24 h,[1],19 ± 13% of injected ^238 Pu
same,238Pu in skeleton at 24 h,[1],20 ± 11% of injected ^238 Pu
same,238Pu in soft tissue at 24 h,[1],4.5 ± 1.4% of injected ^238 Pu
same,238Pu in whole body at 24 h,[1],45 ± 2.5% of injected ^238 Pu
"CC(=O)N(O)CCCCCNC(=O)CCC(=O)N(O)CCCCCNC(=O)CCC(=O)N(O)CCCCCNC(=O)c1cccc(=O)n1O [DFO-(1,2-HOPO)]",238Pu excreta: feces and GI contents,[1],46.7% of injected ^238 Pu
same,238Pu excreta: urine 0-24 h,[1],9.5% of injected ^238 Pu
same,238Pu in kidneys at 24 h,[1],0.1% of injected ^238 Pu
same,238Pu in liver at 24 h,[1],5.1 ± 2.2% of injected ^238 Pu
same,238Pu in skeleton at 24 h,[1],6.0 ± 0.5% of injected ^238 Pu
same,238Pu in soft tissue at 24 h,[1],2.3 ± 0.5% of injected ^238 Pu
same,238Pu in whole body at 24 h,[1],13 ± 2.9% of injected ^238 Pu
"Cn1ccc(C(=O)NCCN(CCNC(=O)c2ccn(C)c(=O)c2O)CCN(CCNC(=O)c2ccn(C)c(=O)c2O)CCNC(=O)c2ccn(C)c(=O)c2O)c(O)c1=O [H(2,2)-Me-3,2-HOPO, N,N,N',N'-tetrakis[(3-hydroxy-1-methyl-2-oxo-1,2-dihydropyridin-4-yl)carboxamido-ethyl]-ethylenediamine]",body weight,[2]; [7],92 ± 6 percent control
same,plasma urea N,[2]; [7],223 ± 28 percent control
same,no. of survivors,"[2]; protocol I: 100 μmol/kg × 10 daily i.p., 11 d, of 5 mice",5
same,body weight,[2]; [8],87 ± 9 percent control
same,plasma urea N,[2]; [8],225 ± 188 percent control
same,no. of survivors,"[2]; protocol I: 100 μmol/kg × 10 daily i.p., 21 d, of 5 mice",5
same,body weight,[2]; [9],94 ± 6 percent control
same,plasma urea N,[2]; [9],169 ± 10 percent control
same,no. of survivors,"[2]; protocol II: 500 μmol/kg × 2 in 8 h i.p., 8 d, of 19 (TREN) or 10 (H(2,2)) mice",3
CCCCCCCCCCNC(=O)c1ccn(C)c(=O)c1O [Me-2-HOPO-Decylamide],% Pu(IV) Extracted,"[3]; MIBK, 0.10M aqueous, 1.0 min",98.2 ± 4.5%
same,Partition Coefficient,"[3]; MIBK, 0.10M aqueous, 1.0 min",53.63 ± 1.60
same,% Pu(IV) Extracted,"[3]; MIBK, 0.10M aqueous, 5.0 min",95.9 ± 4.4%
same,Partition Coefficient,"[3]; MIBK, 0.10M aqueous, 5.0 min",23.40 ± 1.14
same,% Pu(IV) Extracted,"[3]; MIBK, 0.10M aqueous, 10.0 min",97.7 ± 4.5%
same,Partition Coefficient,"[3]; MIBK, 0.10M aqueous, 10.0 min",42.43 ± 1.43
same,% Pu(IV) Extracted,"[3]; MIBK, 0.10M aqueous, 20.0 min",93.2 ± 4.3%
same,Partition Coefficient,"[3]; MIBK, 0.10M aqueous, 20.0 min",13.63 ± 0.82
same,% Pu(IV) Extracted,"[3]; MIBK, 5.0M aqueous, 1.0 min",97.9 ± 4.5%
same,Partition Coefficient,"[3]; MIBK, 5.0M aqueous, 1.0 min",46.00 ± 1.48
same,% Pu(IV) Extracted,"[3]; MIBK, 5.0M aqueous, 5.0 min",97.9 ± 4.5%
same,Partition Coefficient,"[3]; MIBK, 5.0M aqueous, 5.0 min",46.62 ± 1.43
same,% Pu(IV) Extracted,"[3]; MIBK, 5.0M aqueous, 10.0 min",95.8 ± 4.4%
same,Partition Coefficient,"[3]; MIBK, 5.0M aqueous, 10.0 min",22.87 ± 1.07
same,% Pu(IV) Extracted,"[3]; MIBK, 5.0M aqueous, 20.0 min",81.9 ± 3.8%
same,Partition Coefficient,"[3]; MIBK, 5.0M aqueous, 20.0 min",4.52 ± 0.35
same,% Pu(IV) Extracted,[3]; [10],68.9 ± 3.3%
same,Partition Coefficient,[3]; [10],2.22 ± 0.19
same,% Pu(IV) Extracted,[3]; [11],96.2 ± 4.5%
same,Partition Coefficient,[3]; [11],25.39 ± 1.12
same,% Pu(IV) Extracted,[3]; [12],95.2 ± 4.4%
same,Partition Coefficient,[3]; [12],19.71 ± 1.00
same,% Pu(IV) Extracted,[3]; [13],92.4 ± 4.3%
same,Partition Coefficient,[3]; [13],12.11 ± 0.75
same,% Pu(IV) Extracted,"[3]; octanol, 5.0M aqueous, 1.0 min",98.3 ± 4.6%
same,Partition Coefficient,"[3]; octanol, 5.0M aqueous, 1.0 min",56.64 ± 1.58
same,% Pu(IV) Extracted,"[3]; octanol, 5.0M aqueous, 5.0 min",96.4 ± 4.5%
same,Partition Coefficient,"[3]; octanol, 5.0M aqueous, 5.0 min",26.98 ± 1.13
same,% Pu(IV) Extracted,[3]; [14],93.6 ± 4.4%
same,Partition Coefficient,[3]; [14],14.74 ± 0.83
same,% Pu(IV) Extracted,[3]; [15],88.3 ± 4.1%
same,Partition Coefficient,[3]; [15],7.51 ± 0.53
CCCCCCCCNC(=O)c1ccn(C)c(=O)c1O [Me-2-HOPO-Octylamide],% Pu(IV) Extracted,"[3]; MIBK, 0.10M aqueous, 1.0 min",95.6 ± 4.4%
same,Partition Coefficient,"[3]; MIBK, 0.10M aqueous, 1.0 min",21.90 ± 1.09
same,% Pu(IV) Extracted,"[3]; MIBK, 0.10M aqueous, 5.0 min",91.8 ± 4.3%
same,Partition Coefficient,"[3]; MIBK, 0.10M aqueous, 5.0 min",11.22 ± 0.73
same,% Pu(IV) Extracted,"[3]; MIBK, 0.10M aqueous, 10.0 min",96.8 ± 4.5%
same,Partition Coefficient,"[3]; MIBK, 0.10M aqueous, 10.0 min",30.07 ± 1.26
same,% Pu(IV) Extracted,"[3]; MIBK, 0.10M aqueous, 20.0 min",96.5 ± 4.5%
same,Partition Coefficient,"[3]; MIBK, 0.10M aqueous, 20.0 min",27.56 ± 0.76
same,% Pu(IV) Extracted,"[3]; MIBK, 5.0M aqueous, 1.0 min",98.8 ± 4.6%
same,Partition Coefficient,"[3]; MIBK, 5.0M aqueous, 1.0 min",79.22 ± 1.71
same,% Pu(IV) Extracted,"[3]; MIBK, 5.0M aqueous, 5.0 min",98.2 ± 4.6%
same,Partition Coefficient,"[3]; MIBK, 5.0M aqueous, 5.0 min",53.99 ± 1.54
same,% Pu(IV) Extracted,"[3]; MIBK, 5.0M aqueous, 10.0 min",96.4 ± 4.5%
same,Partition Coefficient,"[3]; MIBK, 5.0M aqueous, 10.0 min",26.82 ± 1.18
same,% Pu(IV) Extracted,"[3]; MIBK, 5.0M aqueous, 20.0 min",83.9 ± 3.9%
same,Partition Coefficient,"[3]; MIBK, 5.0M aqueous, 20.0 min",5.20 ± 0.40
same,% Pu(IV) Extracted,[3]; [10],94.4 ± 4.4%
same,Partition Coefficient,[3]; [10],16.83 ± 0.89
same,% Pu(IV) Extracted,[3]; [11],94.5 ± 4.5%
same,Partition Coefficient,[3]; [11],17.10 ± 1.12
same,% Pu(IV) Extracted,[3]; [12],92.1 ± 4.3%
same,Partition Coefficient,[3]; [12],11.71 ± 0.72
same,% Pu(IV) Extracted,[3]; [13],91.2 ± 4.2%
same,Partition Coefficient,[3]; [13],10.32 ± 0.67
same,% Pu(IV) Extracted,"[3]; octanol, 5.0M aqueous, 1.0 min",97.8 ± 4.1%
same,Partition Coefficient,"[3]; octanol, 5.0M aqueous, 1.0 min",44.22 ± 1.43
same,% Pu(IV) Extracted,"[3]; octanol, 5.0M aqueous, 5.0 min",97.4 ± 4.5%
same,Partition Coefficient,"[3]; octanol, 5.0M aqueous, 5.0 min",36.91 ± 1.30
same,% Pu(IV) Extracted,[3]; [14],95.2 ± 4.4%
same,Partition Coefficient,[3]; [14],19.78 ± 0.98
same,% Pu(IV) Extracted,[3]; [15],91.4 ± 4.3%
same,Partition Coefficient,[3]; [15],10.69 ± 0.67
